In article PMC7472660 (Chemical Science, 2019):

Target: prostate-specific membrane antigen (PSMA) (Homo sapiens, UniProt Q04609)
Experiment: radioligand displacement of […]mTc-MIP-1427 on PSMA+ PC-3 PiP cells
Assay type: cell-based

Sequence of prostate-specific membrane antigen (PSMA) (Q04609 whole entry): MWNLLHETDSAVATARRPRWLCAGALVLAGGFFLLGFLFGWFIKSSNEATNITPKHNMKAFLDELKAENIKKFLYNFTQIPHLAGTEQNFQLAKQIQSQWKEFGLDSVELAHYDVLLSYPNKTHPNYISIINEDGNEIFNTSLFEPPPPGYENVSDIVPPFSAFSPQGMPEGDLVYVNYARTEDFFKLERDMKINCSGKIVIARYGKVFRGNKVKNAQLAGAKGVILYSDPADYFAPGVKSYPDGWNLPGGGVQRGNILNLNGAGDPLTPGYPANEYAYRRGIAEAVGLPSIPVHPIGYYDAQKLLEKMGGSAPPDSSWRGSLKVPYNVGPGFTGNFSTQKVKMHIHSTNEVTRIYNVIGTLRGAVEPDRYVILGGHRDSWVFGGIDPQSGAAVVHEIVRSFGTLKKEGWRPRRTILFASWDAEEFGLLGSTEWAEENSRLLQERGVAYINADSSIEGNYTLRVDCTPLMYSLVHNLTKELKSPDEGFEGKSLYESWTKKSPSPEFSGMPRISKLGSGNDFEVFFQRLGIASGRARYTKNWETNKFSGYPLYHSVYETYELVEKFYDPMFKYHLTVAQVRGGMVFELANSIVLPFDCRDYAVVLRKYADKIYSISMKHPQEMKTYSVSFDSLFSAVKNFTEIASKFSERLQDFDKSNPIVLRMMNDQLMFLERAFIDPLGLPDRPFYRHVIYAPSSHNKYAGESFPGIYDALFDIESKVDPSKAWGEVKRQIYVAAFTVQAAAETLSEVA

Substance: Sc(DOTA)-DUPA
- Ki: 222 ± 186 nM

Substance: Sc(picaga)-DUPA
- Ki: 1.6 ± 0.4 nM
